Measured values as given in ChEMBL document CHEMBL1649134, “Occurrence of efflux mechanism and cephalosporinase variant in a population of Enterobacter aerogenes and Klebsiella pneumoniae isolates producing extended-spectrum beta-lactamases” (2009).
≈ marks a conversion by molar mass, not a printed value.

Assays:
[1] = system: Escherichia coli; experiment: microbe, parasite or virus in culture; details: DH5[alpha]
Description: Antimicrobial activity against multidrug resistant Escherichia coli DH5[alpha] harboring pACM204 plasmid by broth dilution method

[2] = system: Klebsiella pneumoniae; experiment: Antimicrobial activity against multidrug resistant Klebsiella pneumoniae isolate 5 by broth dilution method; assay type: functional
[3] = system: Klebsiella aerogenes; experiment: Antimicrobial activity against multidrug resistant Enterobacter aerogenes isolate 3 by broth dilution method; assay type: functional
[4] = system: Klebsiella pneumoniae; experiment: Antimicrobial activity against multidrug resistant Klebsiella pneumoniae isolate 3 by broth dilution method; assay type: functional
[5] = system: Klebsiella pneumoniae; experiment: Antimicrobial activity against multidrug resistant Klebsiella pneumoniae isolate 11 by broth dilution method; assay type: functional
[6] = system: Klebsiella pneumoniae; experiment: Antimicrobial activity against multidrug resistant Klebsiella pneumoniae isolate 8 by broth dilution method; assay type: functional
[7] = system: Klebsiella aerogenes; experiment: Antimicrobial activity against multidrug resistant Enterobacter aerogenes isolate 25 by broth dilution method; assay type: functional
[8] = system: Klebsiella aerogenes; experiment: Antimicrobial activity against multidrug resistant Enterobacter aerogenes isolate 10 by broth dilution method; assay type: functional
[9] = system: Klebsiella aerogenes; experiment: Antimicrobial activity against multidrug resistant Enterobacter aerogenes isolate 8 by broth dilution method; assay type: functional
[10] = system: Klebsiella pneumoniae; experiment: Antimicrobial activity against multidrug resistant Klebsiella pneumoniae isolate 13 by broth dilution method; assay type: functional
[11] = system: Klebsiella pneumoniae; experiment: Antimicrobial activity against multidrug resistant Klebsiella pneumoniae isolate 12 by broth dilution method; assay type: functional
[12] = system: Klebsiella pneumoniae; experiment: Antimicrobial activity against multidrug resistant Klebsiella pneumoniae isolate 9 by broth dilution method; assay type: functional
[13] = system: Klebsiella pneumoniae; experiment: Antimicrobial activity against multidrug resistant Klebsiella pneumoniae isolate 14 by broth dilution method; assay type: functional
[14] = system: Klebsiella aerogenes; experiment: Antimicrobial activity against multidrug resistant Enterobacter aerogenes ATCC 15038 by broth dilution method; assay type: functional
[15] = system: Klebsiella aerogenes; experiment: Antimicrobial activity against multidrug resistant Enterobacter aerogenes ATCC 15038 harboring pACM204 plasmid by broth dilution method; assay type: functional
[16] = system: Klebsiella pneumoniae; experiment: Antimicrobial activity against multidrug resistant Klebsiella pneumoniae isolate 4 by broth dilution method; assay type: functional
[17] = system: Klebsiella aerogenes; experiment: Antimicrobial activity against multidrug resistant Enterobacter aerogenes isolate 9 by broth dilution method; assay type: functional
[18] = system: Klebsiella pneumoniae; experiment: Antimicrobial activity against multidrug resistant Klebsiella pneumoniae isolate 16 by broth dilution method; assay type: functional
[19] = system: Klebsiella aerogenes; experiment: Antimicrobial activity against multidrug resistant Enterobacter aerogenes isolate 21 by broth dilution method; assay type: functional
[20] = system: Klebsiella aerogenes; experiment: Antimicrobial activity against multidrug resistant Enterobacter aerogenes isolate 7 by broth dilution method; assay type: functional
[21] = system: Klebsiella aerogenes; experiment: Antimicrobial activity against multidrug resistant Enterobacter aerogenes ATCC 15038 harboring pDrive plasmid by broth dilution method; assay type: functional
[22] = system: Klebsiella pneumoniae; experiment: Antimicrobial activity against multidrug resistant Klebsiella pneumoniae isolate 7 by broth dilution method; assay type: functional
[23] = system: Klebsiella aerogenes; experiment: Antimicrobial activity against multidrug resistant Enterobacter aerogenes isolate 15 by broth dilution method; assay type: functional
[24] = system: Klebsiella aerogenes; experiment: Antimicrobial activity against multidrug resistant Enterobacter aerogenes isolate 4 by broth dilution method; assay type: functional
[25] = system: Escherichia coli; experiment: microbe, parasite or virus in culture; details: ATCC 35218
Description: Antimicrobial activity against multidrug resistant Escherichia coli ATCC 35218 harboring pDrive plasmid expressing ampC gene by broth dilution method

[26] = system: Klebsiella pneumoniae; experiment: Antimicrobial activity against multidrug resistant Klebsiella pneumoniae isolate 1 by broth dilution method; assay type: functional
[27] = system: Klebsiella pneumoniae; experiment: Antimicrobial activity against multidrug resistant Klebsiella pneumoniae isolate 2 by broth dilution method; assay type: functional
[28] = system: Klebsiella aerogenes; experiment: Antimicrobial activity against multidrug resistant Enterobacter aerogenes isolate 19 by broth dilution method; assay type: functional
[29] = system: Klebsiella aerogenes; experiment: Antimicrobial activity against multidrug resistant Enterobacter aerogenes isolate 6 by broth dilution method; assay type: functional
[30] = system: Klebsiella aerogenes; experiment: Antimicrobial activity against multidrug resistant Enterobacter aerogenes isolate 20 by broth dilution method; assay type: functional
[31] = system: Escherichia coli; experiment: microbe, parasite or virus in culture; details: DH5[alpha]; remark: listed apart in the source
Description: Antimicrobial activity against multidrug resistant Escherichia coli DH5[alpha] harboring pDrive plasmid by broth dilution method

[32] = system: Klebsiella aerogenes; experiment: Antimicrobial activity against multidrug resistant Enterobacter aerogenes isolate 17 by broth dilution method; assay type: functional
[33] = system: Klebsiella aerogenes; experiment: Antimicrobial activity against multidrug resistant Enterobacter aerogenes isolate 16 by broth dilution method; assay type: functional
[34] = system: Klebsiella aerogenes; experiment: Antimicrobial activity against multidrug resistant Enterobacter aerogenes isolate 23 by broth dilution method; assay type: functional
[35] = system: Klebsiella aerogenes; experiment: Antimicrobial activity against multidrug resistant Enterobacter aerogenes isolate 1 by broth dilution method; assay type: functional
[36] = system: Klebsiella aerogenes; experiment: Antimicrobial activity against multidrug resistant Enterobacter aerogenes isolate 18 by broth dilution method; assay type: functional
[37] = system: Klebsiella aerogenes; experiment: Antimicrobial activity against multidrug resistant Enterobacter aerogenes isolate 13 by broth dilution method; assay type: functional
[38] = system: Escherichia coli; experiment: Antimicrobial activity against multidrug resistant Escherichia coli ATCC 35218 by broth dilution method; assay type: functional
[39] = system: Escherichia coli; experiment: microbe, parasite or virus in culture; details: DH5[alpha]; remark: listed apart in the source
Description: Antimicrobial activity against multidrug resistant Escherichia coli DH5[alpha] harboring pDrive plasmid expressing ampC gene by broth dilution method

[40] = system: Klebsiella pneumoniae; experiment: Antimicrobial activity against multidrug resistant Klebsiella pneumoniae isolate 10 by broth dilution method; assay type: functional
[41] = system: Klebsiella aerogenes; experiment: Antimicrobial activity against multidrug resistant Enterobacter aerogenes isolate 24 by broth dilution method; assay type: functional
[42] = system: Klebsiella aerogenes; experiment: Antimicrobial activity against multidrug resistant Enterobacter aerogenes isolate 11 by broth dilution method; assay type: functional
[43] = system: Klebsiella aerogenes; experiment: Antimicrobial activity against multidrug resistant Enterobacter aerogenes isolate 22 by broth dilution method; assay type: functional
[44] = system: Klebsiella aerogenes; experiment: Antimicrobial activity against multidrug resistant Enterobacter aerogenes isolate 14 by broth dilution method; assay type: functional
[45] = system: Escherichia coli; experiment: microbe, parasite or virus in culture; details: DH5[alpha]; remark: listed apart in the source
Description: Antimicrobial activity against multidrug resistant Escherichia coli DH5[alpha] by broth dilution method

[46] = system: Klebsiella aerogenes; experiment: Antimicrobial activity against multidrug resistant Enterobacter aerogenes ATCC 15038 harboring pDrive plasmid expressing ampC gene by broth dilution method; assay type: functional
[47] = system: Klebsiella aerogenes; experiment: Antimicrobial activity against multidrug resistant Enterobacter aerogenes isolate 27 by broth dilution method; assay type: functional
[48] = system: Klebsiella aerogenes; experiment: Antimicrobial activity against multidrug resistant Enterobacter aerogenes isolate 5 by broth dilution method; assay type: functional
[49] = system: Klebsiella aerogenes; experiment: Antimicrobial activity against multidrug resistant Enterobacter aerogenes isolate 12 by broth dilution method; assay type: functional
[50] = system: Klebsiella aerogenes; experiment: Antimicrobial activity against multidrug resistant Enterobacter aerogenes isolate 26 by broth dilution method; assay type: functional
[51] = system: Klebsiella pneumoniae; experiment: Antimicrobial activity against multidrug resistant Klebsiella pneumoniae ATCC 11296 by broth dilution method; assay type: functional
[52] = system: Klebsiella pneumoniae; experiment: Antimicrobial activity against multidrug resistant Klebsiella pneumoniae isolate 6 by broth dilution method; assay type: functional
[53] = system: Escherichia coli; experiment: microbe, parasite or virus in culture; details: ATCC 35218; remark: listed apart in the source
Description: Antimicrobial activity against multidrug resistant Escherichia coli ATCC 35218 harboring pDrive plasmid by broth dilution method

[54] = system: Klebsiella pneumoniae; experiment: Antimicrobial activity against multidrug resistant Klebsiella pneumoniae isolate 15 by broth dilution method; assay type: functional
[55] = system: Klebsiella aerogenes; experiment: Antimicrobial activity against multidrug resistant Enterobacter aerogenes isolate 2 by broth dilution method; assay type: functional

## C[C@@H](O)[C@H]1C(=O)N2C(C(=O)O)=C(SCCNC=N)C[C@H]12 [IMIPENEM ANHYDROUS]
[1]
  MIC: 0.5 µg/mL (≈ 1.67 µM)
[2]
  MIC: 0.5 µg/mL (≈ 1.67 µM)
[3]
  MIC: 1 µg/mL (≈ 3.34 µM)
[4]
  MIC: 2 µg/mL (≈ 6.68 µM)
[5]
  MIC: 0.5 µg/mL (≈ 1.67 µM)
[6]
  MIC: 0.5 µg/mL (≈ 1.67 µM)
[7]
  MIC: 1 µg/mL (≈ 3.34 µM)
[8]
  MIC: 1 µg/mL (≈ 3.34 µM)
[9]
  MIC: 1 µg/mL (≈ 3.34 µM)
[10]
  MIC: 1 µg/mL (≈ 3.34 µM)
[11]
  MIC: 1 µg/mL (≈ 3.34 µM)
[12]
  MIC: 0.5 µg/mL (≈ 1.67 µM)
[13]
  MIC: 0.5 µg/mL (≈ 1.67 µM)
[14]
  MIC: 0.25 µg/mL (≈ 0.835 µM)
[15]
  MIC: 0.5 µg/mL (≈ 1.67 µM)
[16]
  MIC: 1 µg/mL (≈ 3.34 µM)
[17]
  MIC: 1 µg/mL (≈ 3.34 µM)
[18]
  MIC: 0.5 µg/mL (≈ 1.67 µM)
[19]
  MIC: 2 µg/mL (≈ 6.68 µM)
[20]
  MIC: 2 µg/mL (≈ 6.68 µM)
[21]
  MIC: 0.5 µg/mL (≈ 1.67 µM)
[22]
  MIC: 0.5 µg/mL (≈ 1.67 µM)
[23]
  MIC: 0.5 µg/mL (≈ 1.67 µM)
[24]
  MIC: 1 µg/mL (≈ 3.34 µM)
[25]
  MIC: 0.5 µg/mL (≈ 1.67 µM)
[26]
  MIC: 0.25 µg/mL (≈ 0.835 µM)
[27]
  MIC: 0.25 µg/mL (≈ 0.835 µM)
[28]
  MIC: 2 µg/mL (≈ 6.68 µM)
[29]
  MIC: 1 µg/mL (≈ 3.34 µM)
[30]
  MIC: 1 µg/mL (≈ 3.34 µM)
[31]
  MIC: 0.25 µg/mL (≈ 0.835 µM)
[32]
  MIC: 1 µg/mL (≈ 3.34 µM)
[33]
  MIC: 1 µg/mL (≈ 3.34 µM)
[34]
  MIC: 1 µg/mL (≈ 3.34 µM)
[35]
  MIC: 1 µg/mL (≈ 3.34 µM)
[36]
  MIC: 1 µg/mL (≈ 3.34 µM)
[37]
  MIC: 2 µg/mL (≈ 6.68 µM)
[38]
  MIC: 0.125 µg/mL (≈ 0.418 µM)
[39]
  MIC: 2 µg/mL (≈ 6.68 µM)
[40]
  MIC: 0.5 µg/mL (≈ 1.67 µM)
[41]
  MIC: 1 µg/mL (≈ 3.34 µM)
[42]
  MIC: 1 µg/mL (≈ 3.34 µM)
[43]
  MIC: 1 µg/mL (≈ 3.34 µM)
[44]
  MIC: 2 µg/mL (≈ 6.68 µM)
[45]
  MIC: 0.25 µg/mL (≈ 0.835 µM)
[46]
  MIC: 2 µg/mL (≈ 6.68 µM)
[47]
  MIC: 1 µg/mL (≈ 3.34 µM)
[48]
  MIC: 2 µg/mL (≈ 6.68 µM)
[49]
  MIC: 1 µg/mL (≈ 3.34 µM)
[50]
  MIC: 1 µg/mL (≈ 3.34 µM)
[51]
  MIC: 0.5 µg/mL (≈ 1.67 µM)
[52]
  MIC: 0.5 µg/mL (≈ 1.67 µM)
[53]
  MIC: 0.25 µg/mL (≈ 0.835 µM)
[54]
  MIC: 1 µg/mL (≈ 3.34 µM)
[55]
  MIC: 1 µg/mL (≈ 3.34 µM)

## CO[C@@]1(NC(=O)Cc2cccs2)C(=O)N2C(C(=O)O)=C(COC(N)=O)CS[C@@H]21 [CEFOXITIN]
[2]
  MIC: 16 µg/mL (≈ 37.4 µM)
[3]
  MIC: > 1020 µg/mL
[4]
  MIC: 32 µg/mL (≈ 74.9 µM)
[5]
  MIC: 32 µg/mL (≈ 74.9 µM)
[6]
  MIC: 8 µg/mL (≈ 18.7 µM)
[7]
  MIC: > 1020 µg/mL
[8]
  MIC: > 1020 µg/mL
[9]
  MIC: 1020 µg/mL (≈ 2400 µM)
[10]
  MIC: 32 µg/mL (≈ 74.9 µM)
[11]
  MIC: 64 µg/mL (≈ 150 µM)
[12]
  MIC: 16 µg/mL (≈ 37.4 µM)
[13]
  MIC: 64 µg/mL (≈ 150 µM)
[14]
  MIC: 128 µg/mL (≈ 299 µM)
[16]
  MIC: 32 µg/mL (≈ 74.9 µM)
[17]
  MIC: > 1020 µg/mL
[18]
  MIC: 32 µg/mL (≈ 74.9 µM)
[19]
  MIC: > 1020 µg/mL
[20]
  MIC: > 1020 µg/mL
[22]
  MIC: 16 µg/mL (≈ 37.4 µM)
[23]
  MIC: > 1020 µg/mL
[24]
  MIC: > 1020 µg/mL
[26]
  MIC: 16 µg/mL (≈ 37.4 µM)
[27]
  MIC: 16 µg/mL (≈ 37.4 µM)
[28]
  MIC: > 1020 µg/mL
[29]
  MIC: > 1020 µg/mL
[30]
  MIC: > 1020 µg/mL
[32]
  MIC: > 1020 µg/mL
[33]
  MIC: > 1020 µg/mL
[34]
  MIC: 256 µg/mL (≈ 599 µM)
[35]
  MIC: > 1020 µg/mL
[36]
  MIC: > 1020 µg/mL
[37]
  MIC: > 1020 µg/mL
[40]
  MIC: 32 µg/mL (≈ 74.9 µM)
[41]
  MIC: > 1020 µg/mL
[42]
  MIC: 512 µg/mL (≈ 1200 µM)
[43]
  MIC: > 1020 µg/mL
[44]
  MIC: > 1020 µg/mL
[47]
  MIC: > 1020 µg/mL
[48]
  MIC: > 1020 µg/mL
[49]
  MIC: > 1020 µg/mL
[50]
  MIC: 1020 µg/mL (≈ 2400 µM)
[51]
  MIC: 8 µg/mL (≈ 18.7 µM)
[52]
  MIC: 16 µg/mL (≈ 37.4 µM)
[54]
  MIC: 64 µg/mL (≈ 150 µM)
[55]
  MIC: > 1020 µg/mL
